Measurements reported in ChEMBL document CHEMBL1147460, “Syntheses and SAR studies of 4-(heteroarylpiperdin-1-yl-methyl)-pyrrolidin-1-yl-acetic acid antagonists of the human CCR5 chemokine receptor” (Bioorg Med Chem Lett, 2004).

Columns and labels:
[1] = molecular target: T1, C-C chemokine receptor type 5 (Homo sapiens, UniProt P51681); assay: Inhibition of human C-C chemokine receptor type 5 assayed using [125I]-MIP-1 alpha as radioligand
HeLa [2] = assay: Anti viral activity in anti HIV-1 infectivity assay in HeLa Magi cells; type: functional; conditions: Homo sapiens
[3] = molecular target: T1, C-C chemokine receptor type 5; assay: Inhibitory concentration against C-C chemokine receptor type 5 using [125I]-MIP-1 alpha as radioligand
HeLa [4] = assay: Anti viral activity was determined in anti HIV-1 infectivity assay in HeLa Magi cells; type: functional, cell-based; conditions: Homo sapiens
[5] = Oral bioavailability in rat; type: ADME, organism-based; conditions: in vivo
[6] = Half life in rat; type: ADME, organism-based; conditions: in vivo
[7] = Volume of distribution in rat; type: ADME, organism-based; conditions: in vivo, read-out: Vdss
[8] = Plasma clearance in rat; type: ADME, organism-based; conditions: read-out: Clp

T1 sequence (P51681 whole entry): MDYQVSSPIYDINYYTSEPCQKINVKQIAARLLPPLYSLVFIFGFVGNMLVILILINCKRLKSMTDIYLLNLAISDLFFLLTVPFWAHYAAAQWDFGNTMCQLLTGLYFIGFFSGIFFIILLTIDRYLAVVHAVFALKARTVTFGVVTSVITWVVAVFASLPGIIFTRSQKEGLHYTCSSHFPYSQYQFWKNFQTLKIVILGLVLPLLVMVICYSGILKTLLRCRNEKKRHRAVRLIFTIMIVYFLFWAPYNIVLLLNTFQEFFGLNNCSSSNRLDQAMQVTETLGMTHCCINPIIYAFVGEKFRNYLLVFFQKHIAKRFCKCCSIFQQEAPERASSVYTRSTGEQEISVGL

Row | SMILES | IC50 [1] | IC50 (HeLa [4]) | further results
1 | O=C(O)[C@@H](C1CCCCC1)N1C[C@H](CN2CCC(c3nc(-c4ccccc4)c[nH]3)CC2)[C@@H](c2ccccc2)C1 | 23 nM | – | –
2 | O=C(O)[C@@H](C1CCCCC1)N1C[C@H](CN2CCC(c3cc(-c4ccccc4)no3)CC2)[C@@H](c2ccccc2)C1 | – | – | IC50 [3]: 18.1 nM
3 | O=C(O)C(CC1CCC1)N1CC(c2ccccc2)[C@@H](CN2CCC(c3cnc(Cc4ccccc4)s3)CC2)C1 (some centres undefined) | 0.23 nM | 0.13 nM | –
4 | CCc1nc(Cc2ccccc2)oc1C1CCN(C[C@H]2CN([C@H](CC3CCC3)C(=O)O)C[C@@H]2c2cccc(F)c2)CC1 | 0.89 nM | 0.13 nM | –
5 | O=C(O)[C@@H](C1CCCCC1)N1C[C@H](CN2CCC(c3nocc3-c3ccccc3)CC2)[C@@H](c2ccccc2)C1 | 27 nM | – | –
6 | O=C(O)[C@@H](CC1CCC1)N1C[C@H](CN2CCC(c3[nH]c(Cc4ccccc4)nc3Cl)CC2)[C@@H](c2cccc(F)c2)C1 | 0.6 nM | 0.13 nM | –
7 | O=C(O)[C@@H](C1CCCCC1)N1C[C@H](CN2CCC(c3csc(Cc4ccccc4)n3)CC2)[C@@H](c2ccccc2)C1 | 1.3 nM | – | IC90 (HeLa [2]): 33 nM
8 | O=C(O)[C@@H](CC1CCC1)N1C[C@H](CN2CCC(c3c[nH]c(Cc4ccccc4)n3)CC2)[C@@H](c2ccccc2)C1 | 0.38 nM | 100 nM | –
9 | CCc1nc(Cc2ccccc2)[nH]c1C1CCN(C[C@H]2CN([C@H](CC3CCC3)C(=O)O)C[C@@H]2c2cccc(F)c2)CC1 | 0.57 nM | 0.4 nM | –
10 | CC(C)[C@H](C(=O)O)N1C[C@H](CN2CCC(c3cnc(Cc4ccccc4)s3)CC2)[C@@H](c2ccccc2)C1 | 0.51 nM | 11 nM | –
11 | CC(C)[C@H](C(=O)O)N1C[C@H](CN2CCC(c3cnc(Cc4ccccc4)o3)CC2)[C@@H](c2ccccc2)C1 | 3.8 nM | 300 nM | –
12 | O=C(O)[C@@H](CC1CC1)N1C[C@H](CN2CCC(c3cnc(Cc4ccccc4)o3)CC2)[C@@H](c2ccccc2)C1 | 1.6 nM | 3.7 nM | –
13 | O=C(O)[C@@H](C1CCCCC1)N1C[C@H](CN2CCC(c3cnc(-c4ccccc4)[nH]3)CC2)[C@@H](c2ccccc2)C1 | 6.2 nM | – | IC90 (HeLa [2]): 33 nM
14 | O=C(O)[C@@H](C1CCCCC1)N1C[C@H](CN2CCC(c3cnc(Cc4ccccc4)[nH]3)CC2)[C@@H](c2ccccc2)C1 | 0.67 nM | – | –
15 | O=C(O)[C@@H](C1CCCCC1)N1C[C@H](CN2CCC(c3ncc(Cc4ccccc4)s3)CC2)[C@@H](c2ccccc2)C1 | 2 nM | – | IC90 (HeLa [2]): 33 nM
16 | O=C(O)[C@@H](CC1CC1)N1C[C@H](CN2CCC(c3c[nH]c(Cc4ccccc4)n3)CC2)[C@@H](c2ccccc2)C1 | 0.73 nM | 100 nM | –
17 | O=C(O)[C@@H](C1CCCCC1)N1C[C@H](CN2CCC(c3csc(-c4ccccc4)n3)CC2)[C@@H](c2ccccc2)C1 | 1.1 nM | – | IC90 (HeLa [2]): 100 nM
18 | O=C(O)[C@@H](CC1CC1)N1C[C@H](CN2CCC(c3[nH]c(Cc4ccccc4)nc3Cl)CC2)[C@@H](c2cccc(F)c2)C1 | 0.7 nM | 0.4 nM | bioavailability [5]: 1.1%; half-life [6]: 31.8 min; Vd [7]: 1.05 L/kg; clearance [8]: 60.5 mL/min/kg

Now from value to compound, other results behind:

Row | IC50 [1] | IC50 (HeLa [4]) | SMILES | further results
19 | 1.5 nM | – | O=C(O)[C@@H](C1CCCCC1)N1C[C@H](CN2CCC(c3ncc(Cc4ccccc4)o3)CC2)[C@@H](c2ccccc2)C1 | IC90 (HeLa [2]): 100 nM
20 | 1 nM | 0.13 nM | CCc1nc(Cc2ccccc2)sc1C1CCN(C[C@H]2CN([C@@H](C(=O)O)C(C)C)C[C@@H]2c2cccc(F)c2)CC1 | bioavailability [5]: 19%; half-life [6]: 50.4 min; Vd [7]: 0.54 L/kg; clearance [8]: 1.15 mL/min/kg
21 | 0.29 nM | – | O=C(O)[C@@H](C1CCCCC1)N1C[C@H](CN2CCC(c3cnc(Cc4ccccc4)s3)CC2)[C@@H](c2ccccc2)C1 | IC90 (HeLa [2]): 0.14 nM
22 | 0.23 nM | 0.13 nM | O=C(O)C(CC1CC1)N1CC(c2ccccc2)[C@@H](CN2CCC(c3cnc(Cc4ccccc4)s3)CC2)C1 (some centres undefined) | –
23 | 7 nM | 300 nM | CC(C)[C@H](C(=O)O)N1C[C@H](CN2CCC(c3cnc(Cc4ccccc4)[nH]3)CC2)[C@@H](c2ccccc2)C1 | –
24 | 0.76 nM | 0.13 nM | CCc1nc(Cc2ccccc2)sc1C1CCN(C[C@H]2CN([C@H](CC3CCC3)C(=O)O)C[C@@H]2c2cccc(F)c2)CC1 | –
25 | 0.34 nM | 3.7 nM | O=C(O)[C@@H](CC1CCC1)N1C[C@H](CN2CCC(c3cnc(Cc4ccccc4)o3)CC2)[C@@H](c2ccccc2)C1 | –
